# Experimental data as given in ChEMBL document CHEMBL2440042, “Anti-proliferative activity of hydnocarpin, a natural lignan, is associated with the suppression of Wnt/β-catenin signaling pathway in colon cancer cells” (Bioorg Med Chem Lett, 2013).
# Activity calls are given as the source filed them. The calls are words filed in the database; no cut-off is given here.
# What was measured:
# [1] = test system: SW480; assay: Inhibition of Wnt/beta-catenin signaling pathway in human SW480 cells assessed as Axin2 protein expression at 5 uM after 12 hrs by Western blotting analysis relative to vehicle-treated control
# [2] = test system: SW480; assay: Inhibition of Wnt/beta-catenin signaling pathway in human SW480 cells assessed as dvl1 protein expression at 20 uM after 12 hrs by Western blotting analysis relative to vehicle-treated control
# [3] = test system: SW480; assay: Inhibition of Wnt/beta-catenin signaling pathway in human SW480 cells assessed as dvl3 protein expression at 10 uM after 24 hrs by Western blotting analysis relative to vehicle-treated control
# [4] = test system: SW480; assay: Antiproliferative activity against human SW480 cells assessed as growth inhibition after 72 hrs by SRB assay; type: functional, cell-based; settings: SW480, 72 h
# [5] = test system: SW480; assay: Inhibition of Wnt/beta-catenin signaling pathway in human SW480 cells assessed as Axin1 protein expression at 10 uM after 24 hrs by Immunoblotting analysis relative to vehicle-treated control
# [6] = test system: SW480; assay: Inhibition of Wnt/beta-catenin signaling pathway in human SW480 cells assessed as CK1-alpha protein expression at 20 uM after 12 hrs by Western blotting analysis relative to vehicle-treated control
# [7] = test system: SW480; assay: Inhibition of Wnt/beta-catenin signaling pathway in human SW480 cells assessed as increase in phosphorylation of beta-catenin at Ser45 at 10 uM after 12 hrs by Western blotting analysis relative to vehicle-treated control
# [8] = test system: SW480; assay: Effect on total beta-catenin protein level in human SW480 cells at 5 to 20 uM after 12 to 24 hrs by Western blotting analysis relative to vehicle-treated control; type: functional, cell-based
# [9] = test system: SW480; assay: Inhibition of Wnt/beta-catenin signaling pathway in human SW480 cells assessed as Axin1 protein expression at 5 uM after 24 hrs by Immunoblotting analysis relative to vehicle-treated control
# [10] = test system: SW480; assay: Inhibition of Wnt/beta-catenin signaling pathway in human SW480 cells assessed as increase in phosphorylation of beta-catenin at Ser45 at 5 uM after 12 hrs by Western blotting analysis relative to vehicle-treated control
# [11] = test system: HEK293; assay: Inhibition of Wnt/beta-catenin signaling pathway in human HEK293 cells after 24 hrs by dual luciferase reporter gene assay relative to vehicle-treated control; type: cell-based
# [12] = test system: SW480; assay: Inhibition of Wnt/beta-catenin signaling pathway in human SW480 cells assessed as dvl3 protein expression at 5 uM after 24 hrs by Western blotting analysis relative to vehicle-treated control
# [13] = test system: SW480; assay: Inhibition of Wnt/beta-catenin signaling pathway in human SW480 cells after 24 hrs by FOPflash luciferase reporter gene assay relative to vehicle-treated control; type: cell-based
# [14] = test system: SW480; assay: Inhibition of Wnt/beta-catenin signaling pathway in human SW480 cells assessed as dvl2 protein expression at 10 uM after 12 hrs by Western blotting analysis relative to vehicle-treated control
# [15] = test system: SW480; assay: Inhibition of Wnt/beta-catenin signaling pathway in human SW480 cells assessed as Axin2 protein expression at 20 uM after 24 hrs by Western blotting analysis relative to vehicle-treated control
# [16] = test system: SW480; assay: Inhibition of Wnt/beta-catenin signaling pathway in human SW480 cells assessed as Axin1 protein expression at 20 uM after 24 hrs by Western blotting analysis relative to vehicle-treated control
# [17] = test system: SW480; assay: Inhibition of Wnt/beta-catenin signaling pathway in human SW480 cells assessed as dvl1 protein expression at 5 uM after 12 hrs by Western blotting analysis relative to vehicle-treated control
# [18] = test system: SW480; assay: Inhibition of Wnt/beta-catenin signaling pathway in human SW480 cells assessed as beta-catenin protein expression at 20 uM after 12 hrs by Western blotting analysis relative to vehicle-treated control
# [19] = test system: SW480; assay: Inhibition of Wnt/beta-catenin signaling pathway in human SW480 cells assessed as phosphorylated (S45) beta-catenin protein expression at 20 uM after 24 hrs by Western blotting analysis relative to vehicle-treated control
# [20] = test system: SW480; assay: Inhibition of Wnt/beta-catenin signaling pathway in human SW480 cells assessed as increase in phosphorylation of beta-catenin at Ser45 after 24 hrs by Western blotting analysis relative to vehicle-treated control; type: cell-based
# [21] = test system: SW480; assay: Inhibition of Wnt/beta-catenin signaling pathway in human SW480 cells assessed as dvl3 protein expression at 5 uM after 12 hrs by Western blotting analysis relative to vehicle-treated control
# [22] = test system: SW480; assay: Inhibition of Wnt/beta-catenin signaling pathway in human SW480 cells assessed as increase in phosphorylation of beta-catenin at Ser45 at 20 uM after 12 hrs by Western blotting analysis relative to vehicle-treated control
# [23] = test system: SW480; assay: Inhibition of Wnt/beta-catenin signaling pathway in human SW480 cells assessed as CK1-alpha protein expression at 20 uM after 24 hrs by Western blotting analysis relative to vehicle-treated control
# [24] = test system: SW480; assay: Inhibition of Wnt/beta-catenin signaling pathway in human SW480 cells assessed as dvl3 protein expression at 20 uM after 24 hrs by Western blotting analysis relative to vehicle-treated control
# [25] = test system: SW480; assay: Inhibition of Wnt/beta-catenin signaling pathway in human SW480 cells assessed as dvl2 protein expression at 20 uM after 12 hrs by Western blotting analysis relative to vehicle-treated control
# [26] = test system: SW480; assay: Inhibition of Wnt/beta-catenin signaling pathway in human SW480 cells assessed as Axin2 protein expression at 20 uM after 12 hrs by Western blotting analysis relative to vehicle-treated control
# [27] = test system: SW480; assay: Inhibition of Wnt/beta-catenin signaling pathway in human SW480 cells assessed as Axin1 protein expression at 5 uM after 12 hrs by Western blotting analysis relative to vehicle-treated control
# [28] = test system: SW480; assay: Inhibition of Wnt/beta-catenin signaling pathway in human SW480 cells assessed as increase in phosphorylation of beta-catenin at Ser45 after 12 hrs by Western blotting analysis relative to vehicle-treated control; type: cell-based
# [29] = test system: SW480; assay: Inhibition of Wnt/beta-catenin signaling pathway in human SW480 cells assessed as dvl2 protein expression at 5 uM after 12 hrs by Western blotting analysis relative to vehicle-treated control
# [30] = test system: SW480; assay: Inhibition of Wnt/beta-catenin signaling pathway in human SW480 cells assessed as beta-catenin protein expression at 20 uM after 24 hrs by Western blotting analysis relative to vehicle-treated control
# [31] = test system: SW480; assay: Inhibition of Wnt/beta-catenin signaling pathway in human SW480 cells assessed as CK1-alpha protein expression at 5 uM after 24 hrs by Western blotting analysis relative to vehicle-treated control
# [32] = test system: SW480; assay: Inhibition of Wnt/beta-catenin signaling pathway in human SW480 cells assessed as Axin2 protein expression at 10 uM after 24 hrs by Western blotting analysis relative to vehicle-treated control
# [33] = test system: SW480; assay: Inhibition of Wnt/beta-catenin signaling pathway in human SW480 cells assessed as Axin2 protein expression at 10 uM after 12 hrs by Western blotting analysis relative to vehicle-treated control
# [34] = test system: SW480; assay: Inhibition of Wnt/beta-catenin signaling pathway in human SW480 cells assessed as GSK3-beta protein expression at 5 uM after 24 hrs by Western blotting analysis relative to vehicle-treated control
structure (smiles),measurement,setting,value
COc1cc([C@H]2Oc3ccc(-c4cc(=O)c5c(O)cc(O)cc5o4)cc3O[C@@H]2CO)ccc1O (relative stereo),fold change (FC),[1],1
same,fold change (FC),[2],1.1
same,fold change (FC),[3],1
same,IC50,[4],20.3 µM
same,fold change (FC),[5],1.5
same,fold change (FC),[6],1.2
same,fold change (FC),[7],3.6
same,Activity,[8],inactive
same,fold change (FC),[9],1.4
same,fold change (FC),[10],3
same,inhibition,[11],Dose-dependent effect
same,fold change (FC),[12],1.2
same,inhibition,[13],inactive
same,fold change (FC),[14],1
same,fold change (FC),[15],6.7
same,fold change (FC),[16],4.2
same,fold change (FC),[17],1.2
same,fold change (FC),[18],0.6
same,fold change (FC),[19],2.4
same,inhibition,[20],Dose-dependent effect
same,fold change (FC),[21],1
same,fold change (FC),[22],4.9
same,fold change (FC),[23],1.1
same,fold change (FC),[24],1.1
same,fold change (FC),[25],0.9
same,fold change (FC),[26],6.5
same,fold change (FC),[27],1.9
same,inhibition,[28],Dose-dependent effect
same,fold change (FC),[29],1.2
same,fold change (FC),[30],0.7
same,fold change (FC),[31],1.1
same,fold change (FC),[32],3.2
same,fold change (FC),[33],3.4
same,fold change (FC),[34],1.1
